Experimental data: patent US11440903B2, “Salt form and crystal form of compound as FGFR4 inhibitor and preparation method thereof” (GUANGDONG ZHONGSHENG PHARMACEUTICAL CO., LTD, priority 2017, dated 2022)

What was measured:
[1] = Stability of the crystal form on stirring as suspension in solvent (40° C., 2 days); type: physicochemical
Protocol: 30 mg of the compound represented by formula (I) was weighed and added into a glass flask, 400 μL acetonitrile-water (1:1) was added to form a suspension. A sample of the suspension was placed on a magnetic stirrer (40° C.) for a dark stirring experiment. The sample of the suspension was centrifuged after stirring at 40° C. for 2 days, and then the residual sample was dried in a vacuum drying oven (30° C.) overnight to give a crystal form A of the compound represented by formula (I). The XRPD pattern of the crystal form A of the compound represented by formula (I) is shown in FIG. 1, the DSC pattern is shown in FIG. 2, and the TGA pattern is shown in FIG. 3.
30 mg of the compound represented by formula (I) was weighed and added into a glass flask, and 400 μL ethyl acetate was added to form a suspension. A sample of the suspension was placed on a magnetic stirrer (40° C.) for dark stirring experiment. The sample of the suspension was centrifuged after stirring at 40° C. for 2 days, and then the residual sample was dried in a vacuum drying oven (30° C.) overnight. The crystal form was detected by XRPD to give a crystal form A of the compound represented by formula (I).
30 mg of the compound represented by formula (I) was weighed and added into a glass flask, and 400 μL methanol was added to form a suspension. A sample of the suspension was placed on a magnetic stirrer (40° C.) for dark stirring experiment. The sample of the suspension was centrifuged after stirring at 40° C. for 2 days, and then the residual sample was dried in a vacuum drying oven (30° C.) overnight to give a crystal form B of the compound represented by formula (I). The XRPD pattern of the crystal form B of the compound represented by formula (I) is shown in FIG. 4, the DSC pattern is shown in FIG. 5, and the TGA pattern is shown in FIG. 6.
50 mg of the compound represented by formula (I) was weighed and added into a 1.5 mL liquid vial, and 200 μL methanol was added thereto, the obtained mixture was homogeneously mixed under ultrasound. The dissolved sample was quickly centrifuged, and the supernatant was placed in a centrifuge tube, the mouth of the tube was packed with a pierced aluminum foil, and then the tube was placed in a fume cupboard for volatilization; the sample of the suspension was placed on a magnetic stirring heater (40° C.) for stirring (in dark), and quickly centrifuged after 2 days. The resultant solid was collected and dried at 30° C. in a vacuum drying oven overnight to give the crystal form C of the compound represented by formula (I). The XRPD pattern of the crystal form C of the compound represented by formula (I) is shown in FIG. 7, the DSC pattern is shown in FIG. 8, and the TGA pattern is shown in FIG. 9.
50 mg of the compound represented by formula (I) was weighed and added into a 1.5 mL liquid vial, and 200 μL ethanol was added thereto, and the obtained mixture was homogeneously mixed under ultrasound. The dissolved sample was quickly centrifuged, the supernatant was placed into a centrifuge tube, and the mouth of the tube was packed with a pierced aluminum foil, and placed in a fume cupboard for volatilization; the sample of the suspension was placed on a magnetic stirring heater (40° C.) for stirring (in dark), and quickly centrifuged after 2 days. The solid obtained as above was collected and dried at 30° C. in a vacuum drying oven overnight to give a crystal form D of the compound represented by formula (I). The XRPD pattern of the crystal form D of the compound represented by formula (I) is shown in FIG. 10, the DSC pattern is shown in FIG. 11, and the TGA pattern is shown in FIG. 12.
35 mg of the compound represented by formula (II) was weighed and added into a 1.5 mL liquid vial, and 400 μL methanol was added thereto, and the obtained mixture was homogeneously mixed under ultrasound. […]

[2] = Solid stability test of the crystal forms (influence factors and acceleration tests; appearance, XRPD, HPLC content and impurities); type: physicochemical; settings: for stability under acceleration conditions, conclusion in words / thermal stability (high temperature), conclusion in words / photostability (stability under light radiation), conclusion in words / stability under high humidity conditions, conclusion in words: conclusion of influence factors and acceleration tests
Text: A sample of the crystal form A was placed on the bottom of a glass sample bottle, and spread to a thin layer. The sample stored under high temperature, high humidity, and acceleration conditions was placed in a bottle of which the mouth was packed with a pierced aluminum foil to ensure the sample to be sufficiently exposed to ambient air; the sample stored under light radiation conditions was placed at room temperature in a standing bottle of which the mouth was open, the sample was exposed to a light resource, and sampled for detection after being radiated by sufficient energy. Samples were taken and analyzed at various time points, and the test results were compared with the initial test results of 0 day, the inspection items included appearance, content and impurities, and the test results are shown in Table 9.
A sample of the crystal form B (10 mg) was placed on the bottom of a glass sample bottle, and spread to a thin layer. The sample stored under high temperature, high humidity, and acceleration conditions were placed in a bottle of which the mouth was packed with a pierced aluminum foil to ensure the sample to be sufficiently exposed to ambient air; the sample stored under light radiation conditions was placed at room temperature in a standing bottle of which the mouth was open, the sample was exposed to a light resource, and sampled for detection after being radiated by sufficient energy, the control sample stored in dark (open, the whole sample bottle was sealed with aluminum foil to keep the content in dark) and the sample stored under light radiation conditions were placed together to exclude environmental influence on the samples. Samples were taken and analyzed at various time points, and the test results were compared with the initial test results of 0 day, the inspection items included appearance, crystal form, content and impurities, the test results are shown in Table 10.
(§1) A sample of the crystal form C was taken and placed on the bottom of a glass sample bottle, and spread to a thin layer. The sample stored under high temperature, high humidity, and acceleration conditions was placed in a bottle of which the mouth was packed with a pierced aluminum foil to ensure the sample to be sufficiently exposed to ambient air; the sample stored under light radiation conditions was placed at room temperature in a standing bottle of which the mouth was open, the sample was exposed to a light resource, and sampled for detection after being radiated by sufficient energy. Samples were taken and analyzed at various time points, and the test results were compared with the initial test results of 0 day.
as §1, with “D” for “C”
A sample of the crystal form E (10 mg) was taken and placed on the bottom of a glass sample bottle, and spread to a thin layer. […]

[3] = Acceleration test (40° C./relative humidity of 75%, open), 5 days
[4] = Acceleration test (40° C./relative humidity of 75%, open), 10 days
[5] = High humidity (room temperature/relative humidity of 92.5%, open), 5 days
[6] = High humidity (room temperature/relative humidity of 92.5%, open), 10 days
[7] = High temperature (60° C., open), 5 days
[8] = High temperature (60° C., open), 10 days
[9] = Light radiation (total illumination: 1.2 × 10^6 Lux·hr), 5 days
[10] = Light radiation (total illumination: 1.2 × 10^6 Lux·hr), 10 days

Row | Compound | Appearance ([2]; 0 day (initial)) | Content (%) ([2]; 0 day (initial)) | Total Impurities (%) ([2]; 0 day (initial)) | Appearance [2, 3] | Appearance [2, 4] | Content (%) [2, 4] [%] | Total Impurities (%) [2, 4] [%] | Appearance [2, 5] | Appearance [2, 6] | Content (%) [2, 6] [%] | Total Impurities (%) [2, 6] [%] | Appearance [2, 7] | Appearance [2, 8] | Content (%) [2, 8] [%] | Total Impurities (%) [2, 8] [%] | Appearance [2, 9] | Appearance [2, 10] | Content (%) [2, 10] [%] | Total Impurities (%) [2, 10] [%] | stability under acceleration conditions, conclusion in words [2] | further results
1 | C=CC(=O)N[C@H]1COC[C@H]1Nc1ncc(/C=C(\F)c2c(Cl)c(OC)cc(OC)c2Cl)cn1 [Crystal Form C] | Off-white | 98.96 | 1.25 | Off-white | Off-white | 98.96 | 1.26 | Off-white | Off-white | 98.22 | 2.08 | Off-white | Off-white | 98.93 | 1.27 | Off-white | Off-white | 98.35 | 1.86 | good | stability in the methanol solution ([1]; stirring in methanol at 40° C. for 2 days): substantially high stability; Crystal Form (XRPD) ([2]; 0 day (initial)): form C; Crystal Form (XRPD) [2, 4]: form C; Crystal Form (XRPD) [2, 6]: form C; Crystal Form (XRPD) [2, 8]: form C; Crystal Form (XRPD) [2, 10]: form C; thermal stability (high temperature), conclusion in words [2]: good
2 | C=CC(=O)N[C@H]1COC[C@H]1Nc1ncc(/C=C(\F)c2c(Cl)c(OC)cc(OC)c2Cl)cn1 [Crystal Form A] | Off-white | 99.11 | 1.12 | Off-white | Off-white | 98.98 | 1.18 | Off-white | Off-white | 98.85 | 1.22 | Off-white | Off-white | 99.06 | 1.18 | Off-white | Off-white | 99.13 | 1.10 | relatively good | stability in the acetonitrile-water solution ([1]; stirring in acetonitrile-water (1:1) at 40° C. for 2 days): substantially high stability; stability in the ethyl acetate solution ([1]; stirring in ethyl acetate at 40° C. for 2 days): substantially high stability; photostability (stability under light radiation), conclusion in words [2]: relatively good; stability under high humidity conditions, conclusion in words [2]: slightly less stability; thermal stability (high temperature), conclusion in words [2]: relatively good
3 | C=CC(=O)N[C@H]1COC[C@H]1Nc1ncc(/C=C(\F)c2c(Cl)c(OC)cc(OC)c2Cl)cn1 [Crystal Form D] | Off-white | 99.33 | 0.90 | Off-white | Off-white | 99.38 | 0.96 | Off-white | Off-white | 99.36 | 0.89 | Off-white | Off-white | 99.32 | 0.94 | Off-white | Off-white | 99.41 | 0.86 | good | stability in the ethanol solution ([1]; stirring in ethanol at 40° C. for 2 days): substantially high stability; photostability (stability under light radiation), conclusion in words [2]: good; stability under high humidity conditions, conclusion in words [2]: good; thermal stability (high temperature), conclusion in words [2]: good
